Source: article PMC10545747, “Development of cyclopeptide inhibitors of cGAS targeting protein-DNA interaction and phase separation” (Nature Communications, 2023)
Where “and” joins values, the source holds several entries; their conditions need not be identical. Identical values can stand only once. Square brackets hold non-standard residues; d marks the D form. Peptide text beside a SMILES is read from it.

Key:
[1] = test system: THP1-Lucia ISG cells infected by HSV-1; assay: Luciferase reporter assay, HSV-1 infection; format: cell-based, human; settings: for luciferase activity, Fig. 5c: XQ2 10 μM
Protocol: THP1-Lucia ISG cells (Invivogen) were seeded into a 96-well plate and incubated with RU.521 (Invivogen) or XQ2 for the indicated time, and then transfected with dsDNA by lipofectamine 2000 (Invitrogen) or infected by HSV-1 with the indicated titer for 24 h. The supernatant was collected and 50 μL QUANTI-Luc Luciferase reagent (Invivogen) was added to 20 μL supernatants per well, and luciferase luminescence was detected by a microplate reader (BioTek Synergy H1) immediately.

[2] = test system: murine fibroblast L929 cells; assay: qPCR of Ifnb1/Cxcl10 mRNA in L929 cells (ISD or HSV-1); format: cell-based, mouse; parameters: key to Ifnb1 mRNA (Fig. S2c) / Cxcl10 mRNA (Fig. S2c) / Ifnb1 mRNA (Fig. S2d) / Cxcl10 mRNA (Fig. S2d): mRNA level normalized to GAPDH (relative expression)
Protocol: The indicated cells were stimulated with either ISD (Sangon Biotech), HSV-1 (Provided by Dr. Zhengfan Jiang), HSV60mer (Sangon Biotech), SATE-cddA[70], 2’3’-cGAMP (Invivogen, Cat# tlrl-nacga23-1), ADU-S100 (MedChemExpress, Cat# HY-12885A) or Poly(I:C) (Invivogen, Cat# tlrl-pic) after XQ2 or XQ2B treatment. Total RNA was isolated from indicated cells that incubated with the drugs for indicated time or mice tissues by using NucleoZOL reagent (MACHEREY-NAGEL) according to the manufacturer’s instructions. The quantifications of mRNA levels were carried out by real-time PCR using a PerfectStart® Uni RT&qPCR Kit (TransGen Biotech) on the QuantStudio 5 qPCR machine (Applied Biosystems). Samples were carried out in triplicate and the target CT values were normalized to GAPDH CT values. Primers of qPCR used in this study can be found in Supplementary Table S2. […]
(c) L929, p = 0.0005 (Ifnb1),
BMDMs, p = 0.0001 (Ifnb1), p < 0.0001 (Cxcl10).
representative of three independent experiments in (a-g). (Data are presented as mean ± SD, n = 3 independent
(§1) Source data are provided as a Source Data file.

THP1 cells = assay: Immunoblotting of phosphorylated IRF3/TBK1 and nuclear IRF3; format: cell-based, human
Protocol: Total cell lysates were prepared in RIPA lysis buffer (Beyotime Biotechnology) supplemented with 1 mM PMSF and 1× protease inhibitor cocktail (Yeasen), and nuclear protein was extracted by nuclear protein extraction kit (Solarbio) in accordance with the manufacturer’s instructions. The samples were separated by SDS-PAGE and transferred to the PVDF membrane (Millipore). The membranes were incubated with the indicated primary antibodies at 4 °C overnight and then incubated with an HRP-conjugated anti-rabbit IgG antibody (Cell Signaling, Cat# 7074, 1:5000) or anti-mouse IgG antibody (Cell Signaling, Cat# 7076, 1:5000) at room temperature for 1 h. The signal was visualized by using the NcmECL Ultra kit (New Cell & Molecular Biotech) and then was exposed by using MiniChemi (SageCreation).

Jurkat cells = assay: Flow cytometry of apoptosis, Annexin V and PI staining; format: cell-based, human; settings: XQ2B +
Protocol: Cell death was measured by Annexin V-FITC/PI Apoptosis Kit (Elabscience) according to the manufacturer’s instructions. Data were acquired on an Attune NxT (ThermoFisher) flow cytometer and analyzed in FlowJo.
Supplementary Fig. 8. XQ2B inhibits cGAS induced autophagy and cell death. (a) L929 cells were pretreated […]
measured by CCK8 assay. p = 0.0022. (c, d) Jurkat cells were treated with DMSO or XQ2B (5 μM), followed by stimulation with ISD (2ug/ml) for 4 h. Flow cytometric analysis of apoptosis assessed by Annexin V and PI staining.
Analysis strategy shown was used to determine the Annexin V+ or PI+ population (c). Numbers in quadrants present […]
percentages (d). p = 0.0006. […]
by HSV-1 infection for indicated titer and periods. Induction of HSV-1(UL5) mRNA was measured by qPCR. p = 0.0018 (1×10^4 pfu); p < 0.0001 (2×10^4 pfu). Data are representative of three independent experiments with similar results in (a), or three independent experiments in (b, d, e). (Data are presented as mean ± SD, n = 3 independent […]
are provided as a Source Data file.

[3] = test system: TREX1 knockdown THP1 cells; assay: qPCR of IFNB1 and CXCL10 mRNA after TREX1 siRNA; format: cell-based, human
Protocol: The indicated cells were stimulated with either ISD (Sangon Biotech), HSV-1 (Provided by Dr. Zhengfan Jiang), HSV60mer (Sangon Biotech), SATE-cddA[70], 2’3’-cGAMP (Invivogen, Cat# tlrl-nacga23-1), ADU-S100 (MedChemExpress, Cat# HY-12885A) or Poly(I:C) (Invivogen, Cat# tlrl-pic) after XQ2 or XQ2B treatment. Total RNA was isolated from indicated cells that incubated with the drugs for indicated time or mice tissues by using NucleoZOL reagent (MACHEREY-NAGEL) according to the manufacturer’s instructions. The quantifications of mRNA levels were carried out by real-time PCR using a PerfectStart® Uni RT&qPCR Kit (TransGen Biotech) on the QuantStudio 5 qPCR machine (Applied Biosystems). Samples were carried out in triplicate and the target CT values were normalized to GAPDH CT values. Primers of qPCR used in this study can be found in Supplementary Table S2.
siRNA of TREX1 (siTREX1) was transfected into the indicated cells by Lipofectamine RNAiMAX (Invitrogen) according to the manufacturer’s instructions. Human siTREX1, mouse siTrex1 and negative control siRNAs were purchased from Sangon Biotech. The sequences of siRNAs oligonucleotides can be found in Supplementary Table S2.
Supplementary Fig. 9. XQ2B reduces interferon expression induced by Trex1 deficiency. […]
TREX1 knockdown THP1 cells were treated with DMSO or XQ2B (10 μM) for 24 h, and the mRNA levels of TREX1
(e), IFNB1 and CXCL10 (f) were measured by qPCR. (e) p < 0.0001, (f) p = 0.0001 (Ifnb1); p = 0.0157 (Cxcl10). Data
as §1

With CC(C)C[C@@H]1NC(=O)[C@H](CCCNC(=N)N)NC(=O)[C@H](C(C)C)NC(=O)[C@@H]2CCCN2C(=O)[C@@H](Cc2ccccc2)NC(=O)[C@H](CC(C)C)NC(=O)[C@H](CCCNC(=N)N)NC(=O)[C@H](C(C)C)NC(=O)[C@H](C)NC(=O)[C@@H](Cc2ccccc2)NC1=O [XQ2, Cyclo (LfAVRLfPVR)] (cyclo(L[dF]AVRL[dF]PVR)) the “HSV-1-induced luciferase reporter signal” value ([1]; 10 μM) was “further confirmed in the reporter cell line THP1 Lucia ISG”, the “luciferase activity, Fig. 5c” value ([1]; Ctl) was 1.148 and 1.262 and 1.5089 and the “luciferase activity, Fig. 5c” value ([1]; HSV-1 1×10^4 pfu 24 h) was 3.199 and 3.457 and 4.259. For the same compound, the “luciferase activity, Fig. 5c” value ([1]; HSV-1 2×10^4 pfu 24 h) was 5.808 and 6.219 and 6.721, the “luciferase activity, Fig. 5c” value ([1]; HSV-1 5×10^4 pfu 24 h) was 11.1309 and 12.5837 and 12.8036 and the “Ifnb1 and Cxcl10 expression induced by ISD and HSV-1” value ([2]; L929, 10 μM) was “significantly inhibited the expression of Ifnb1 and its downstream gene Cxcl10”. For the same compound, the “Cxcl10 mRNA (Fig. S2d)” value ([2]; L929, HSV-1+XQ2) was 14.7732 and 16.7433 and 18.5165, the “Ifnb1 mRNA (Fig. S2d)” value ([2]; L929, HSV-1+XQ2) was 2.433 and 2.873 and 2.57 and the “Cxcl10 mRNA (Fig. S2c)” value ([2]; L929, ISD+XQ2) was 490.131 and 497.538 and 429.114. For the same compound, the “Ifnb1 mRNA (Fig. S2c)” value ([2]; L929, ISD+XQ2) was 47.632 and 43.4073 and 39.6029, the “Cxcl10 mRNA (Fig. S2c)” value ([2]; L929, XQ2 alone) was 1.1537 and 1.297 and 1.725 and the “Cxcl10 mRNA (Fig. S2d)” value ([2]; L929, XQ2 alone) was 1.1537 and 1.297 and 1.725. The “Ifnb1 mRNA (Fig. S2c)” value ([2]; L929, XQ2 alone) was 1.659 and 1.773 and 1.653, the “Ifnb1 mRNA (Fig. S2d)” value ([2]; L929, XQ2 alone) was 1.659 and 1.773 and 1.653 and the “nuclear translocation of IRF-3, fractionation immunoblot” value (THP1 cells; ISD or HSV-1, 10 μM) was “substantially suppressed the nuclear translocation of IRF-3 induced by ISD and HSV-1”. The “phosphorylation of TBK-1 and IRF-3” value (THP1 cells; ISD/dsDNA 6 h) was “markedly decreased phosphorylation of TBK-1 and IRF-3 induced by ISD”.

In the case of CC(C)C[C@@H]1NC(=O)[C@H](CCCNC(=N)N)NC(=O)[C@H](C(C)C)NC(=O)[C@@H]2CCCN2C(=O)[C@@H](Cc2ccccc2)NC(=O)[C@H](CC(C)C)NC(=O)[C@H](CCCNC(=N)N)NC(=O)[C@H]([C@@H](C)O)NC(=O)[C@H](C)NC(=O)[C@@H](Cc2ccccc2)NC1=O [XQ2B] (cyclo([dF]ATRL[dF]PVRL)), the “Induced cell death(%) (Fig. S8d)” value (Jurkat cells; ISD +) is reported as 18.8% and 19.1% and 18.5%, the “Induced cell death(%) (Fig. S8d)” value (Jurkat cells; ISD -) is reported as 3.9% and 3.8% and the “Relative mRNA level Cxcl10” value ([3]; Fig. S9f, TREX1 knockdown (siTREX1 +) THP1 cells, XQ2B +, individual replicates, siTREX1 alone 2.64-3.32) is reported as 2.255 and 1.956 and 2.174. For the same compound, the “Relative mRNA level Ifnb1” value ([3]; Fig. S9f, TREX1 knockdown (siTREX1 +) THP1 cells, XQ2B +, individual replicates, siTREX1 alone 15.6-16.4) was 8.9487 and 8.582 and 9.951 and the “expression of Ifnb1, Cxcl10 with Trex1-siRNA” value ([3]; THP1, 10 μM, 24 h) was “markedly inhibited the expression of these genes in mouse L929 and human THP1 cells with Trex1-siRNA”.
